Source: US20020016330A1, “Materials and methods for killing nematodes and nematode eggs” (priority 2000, published 2002)

Legend:
Caenorhabditis elegans [1] = assay: Follow-up HTS Run (mOD, % Run, visual score); parameters: key to Follow-up HTS Run Visual Score: Dead: only stiff L1s (no movement); Dead (L4): worms are dead, but at a later larval stage; majority of worms are L1 (based on size); majority of worms are L2 (based on size); majority of worms are L3 (based on size); majority of worms are L4 (based on size); AD: majority of worms are adult; #AD: 5 adult worms or less; B!: sterile (0-25 progeny); B: low broodsize (25-100 progeny); ˜B: moderate broodsize (100-250 progeny); <: reduced broodsize (250-500 progeny); OK: no effect (˜1000+ progeny); settings: in vivo
Protocol: (§1) The nematicidal activity of anthelmintic Compositions 48-68 were determined in accordance with the procedure outlined in Example 2.

Caenorhabditis elegans [2] = assay: Initial HTS Run (mOD, % Run, visual score); parameters: key to Initial HTS Run Visual Score: Dead: only stiff L1s (no movement); Dead (L4): worms are dead, but at a later larval stage; majority of worms are L1 (based on size); majority of worms are L2 (based on size); majority of worms are L3 (based on size); majority of worms are L4 (based on size); AD: majority of worms are adult; #AD: 5 adult worms or less; B!: sterile (0-25 progeny); B: low broodsize (25-100 progeny); ˜B: moderate broodsize (100-250 progeny); <: reduced broodsize (250-500 progeny); OK: no effect (˜1000+ progeny); settings: in vivo
Protocol: as §1

Caenorhabditis elegans [3] = assay: C. elegans L1 nematicidal dose response, 5 day visual viability score (3-fold dilutions); format: in vivo; parameters: key: Dead: only stiff L1s (no movement); Dead (L4): worms are dead, but at a later larval stage; majority of worms are L1 (based on size); majority of worms are L2 (based on size); majority of worms are L3 (based on size); majority of worms are L4 (based on size); AD: majority of worms are adult; #AD: 5 adult worms or less; B!: sterile (0-25 progeny); B: low broodsize (25-100 progeny); ˜B: moderate broodsize (100-250 progeny); <: reduced broodsize (250-500 progeny); OK: no effect (˜1000+ progeny); settings: for 5 Day Visual Score V6: 0.3 μM; for 5 Day Visual Score V5: 0.9 μM; for 5 Day Visual Score V4: 2.6 μM; for 5 Day Visual Score V3: 7.8 μM; for 5 Day Visual Score V2: 23.3 μM; for 5 Day Visual Score V1: 70 μM
Protocol: Caenorhabditis elegans adults were grown on Nematode Growth Medium (NGM) until they produced eggs, then the adults were removed.
The eggs were allowed to hatch, and the L1 larvae collected. See The Nematode Caenorhabditis elegans (1988) Cold Spring Harbor Laboratory Press. Using a Matrix Programmable Pipette, the L1s were distributed into 96-well tissue culture plates, 20 L1 in 50 μl NGM per well. Antibiotic/Antimyotic was added to each well, and 1% by weight E. coli strain HB101. The subject anthelmintic compounds were stored at 5 mM in 100% DMSO. 0.7 μl of compounds 1-31 were added to the left-most column of wells to yield a final concentration of 70 μM in 1.4% DMSO, with 1.4% DMSO only as the control. The compounds were then subjected to 5 more 3-fold dilutions from left to right to yield 6 column concentrations of 70 μM, 23.3 μM, 7.8 μM, 2.6 μM, 0.9 μM, and 0.3 μM. Plates were stored in air-tight Rubbermaid plastic boxes at 20° C. The nematodes had cleared all control wells by day 4, and nematode viability was scored by visual examination under a 100× dissecting microscope on day 5. A visual viability scoring system was used as follows:
Column VI has a compound concentration of 70 μM with sequential 3-fold dilutions reported in columns V2, V3, V4, V5, and V6, respectively, such that the V6 concentration was 0.3 μM.
as §1

[4] = test system: root-knot nematode, Meloidogyne incognita; settings: in vivo; cited from earlier work
[5] = Table 3, procedure of Example 2

CC(C)(C)c1csc(NC(=O)Cc2cn(Cc3cccnc3)c3ccc(Cl)cc23)n1 [AKC 162]
Follow-up HTS Run % Run (Caenorhabditis elegans [1]): 111% | Follow-up HTS Run Visual Score (Caenorhabditis elegans [1]): B (low broodsize (25-100 progeny)) | Follow-up HTS Run mOD (Caenorhabditis elegans [1]): 179 mOD | Initial HTS Run % Run (Caenorhabditis elegans [2]): 111% | Initial HTS Run Visual Score (Caenorhabditis elegans [2]): L2/L3/1AD/B! | Initial HTS Run mOD (Caenorhabditis elegans [2]): 136 mOD | 5 Day Visual Score V6 (Caenorhabditis elegans [3]; [5]): OK (no effect (˜1000+ progeny)) | 5 Day Visual Score V5 (Caenorhabditis elegans [3]; [5]): OK (no effect (˜1000+ progeny)) | 5 Day Visual Score V4 (Caenorhabditis elegans [3]; [5]): OK (no effect (˜1000+ progeny)) | 5 Day Visual Score V3 (Caenorhabditis elegans [3]; [5]): OK (no effect (˜1000+ progeny)) | 5 Day Visual Score V2 (Caenorhabditis elegans [3]; [5]): OK (no effect (˜1000+ progeny)) | 5 Day Visual Score V1 (Caenorhabditis elegans [3]; [5]): < (reduced broodsize (250-500 progeny))

CC(=O)Nc1ccc(S(=O)(=O)N2CCN(C(=O)c3cc(C(F)(F)F)cc(C(F)(F)F)c3)CC2C(=O)NCc2ccccc2)cc1 (stereo not drawn) [AKC 163]
Follow-up HTS Run % Run (Caenorhabditis elegans [1]): 136% | Follow-up HTS Run mOD (Caenorhabditis elegans [1]): 219 mOD | Initial HTS Run % Run (Caenorhabditis elegans [2]): 119% | Initial HTS Run Visual Score (Caenorhabditis elegans [2]): L2/L3(DEAD) | Initial HTS Run mOD (Caenorhabditis elegans [2]): 146 mOD | 5 Day Visual Score V6 (Caenorhabditis elegans [3]; [5]): OK (no effect (˜1000+ progeny)) | 5 Day Visual Score V5 (Caenorhabditis elegans [3]; [5]): OK (no effect (˜1000+ progeny)) | 5 Day Visual Score V4 (Caenorhabditis elegans [3]; [5]): OK (no effect (˜1000+ progeny)) | 5 Day Visual Score V3 (Caenorhabditis elegans [3]; [5]): OK (no effect (˜1000+ progeny)) | 5 Day Visual Score V2 (Caenorhabditis elegans [3]; [5]): < (reduced broodsize (250-500 progeny))

CCCCCCCCS(=O)(=O)N1CCN(C(=O)c2cc(C(F)(F)F)cc(C(F)(F)F)c2)CC1C(=O)NCc1ccccc1 (stereo not drawn) [AKC 165]
Follow-up HTS Run % Run (Caenorhabditis elegans [1]): 126% | Follow-up HTS Run Visual Score (Caenorhabditis elegans [1]): Dead | Follow-up HTS Run mOD (Caenorhabditis elegans [1]): 203 mOD | Initial HTS Run % Run (Caenorhabditis elegans [2]): 115% | Initial HTS Run mOD (Caenorhabditis elegans [2]): 142 mOD | 5 Day Visual Score V6 (Caenorhabditis elegans [3]; [5]): OK (no effect (˜1000+ progeny)) | 5 Day Visual Score V5 (Caenorhabditis elegans [3]; [5]): OK (no effect (˜1000+ progeny)) | 5 Day Visual Score V4 (Caenorhabditis elegans [3]; [5]): OK (no effect (˜1000+ progeny)) | 5 Day Visual Score V3 (Caenorhabditis elegans [3]; [5]): < (reduced broodsize (250-500 progeny))

COc1ccc(CC(=O)N2CCN(S(=O)(=O)c3ccc(OC)c(OC)c3)C(C(=O)NCc3cc(C(F)(F)F)cc(C(F)(F)F)c3)C2)cc1OC (stereo not drawn) [AKC 168]
Follow-up HTS Run % Run (Caenorhabditis elegans [1]): 135% | Follow-up HTS Run Visual Score (Caenorhabditis elegans [1]): 3AD/˜B | Follow-up HTS Run mOD (Caenorhabditis elegans [1]): 217 mOD | Initial HTS Run % Run (Caenorhabditis elegans [2]): 90% | Initial HTS Run Visual Score (Caenorhabditis elegans [2]): 5AD/B | Initial HTS Run mOD (Caenorhabditis elegans [2]): 111 mOD | 5 Day Visual Score V6 (Caenorhabditis elegans [3]; [5]): OK (no effect (˜1000+ progeny)) | 5 Day Visual Score V5 (Caenorhabditis elegans [3]; [5]): OK (no effect (˜1000+ progeny)) | 5 Day Visual Score V4 (Caenorhabditis elegans [3]; [5]): OK (no effect (˜1000+ progeny)) | 5 Day Visual Score V3 (Caenorhabditis elegans [3]; [5]): OK (no effect (˜1000+ progeny)) | 5 Day Visual Score V2 (Caenorhabditis elegans [3]; [5]): OK (no effect (˜1000+ progeny)) | 5 Day Visual Score V1 (Caenorhabditis elegans [3]; [5]): L3/#AD/B!

Cc1cccc2scc(CC(=O)Nc3nc(C(C)(C)C)cs3)c12 [AKC 170]
Follow-up HTS Run % Run (Caenorhabditis elegans [1]): 139% | Follow-up HTS Run Visual Score (Caenorhabditis elegans [1]): L4/AD/B! | Follow-up HTS Run mOD (Caenorhabditis elegans [1]): 223 mOD | Initial HTS Run % Run (Caenorhabditis elegans [2]): 111% | Initial HTS Run Visual Score (Caenorhabditis elegans [2]): L3 | Initial HTS Run mOD (Caenorhabditis elegans [2]): 136 mOD | 5 Day Visual Score V6 (Caenorhabditis elegans [3]; [5]): OK (no effect (˜1000+ progeny)) | 5 Day Visual Score V5 (Caenorhabditis elegans [3]; [5]): OK (no effect (˜1000+ progeny)) | 5 Day Visual Score V4 (Caenorhabditis elegans [3]; [5]): OK (no effect (˜1000+ progeny)) | 5 Day Visual Score V3 (Caenorhabditis elegans [3]; [5]): OK (no effect (˜1000+ progeny)) | 5 Day Visual Score V2 (Caenorhabditis elegans [3]; [5]): #AD/ | 5 Day Visual Score V1 (Caenorhabditis elegans [3]; [5]): L2

CCCCCCCCS(=O)(=O)N1CCN(C(=O)C=Cc2cccc(C(F)(F)F)c2)CC1C(=O)NCc1ccc(C(F)(F)F)cc1 (stereo not drawn) [AKC 171]
Follow-up HTS Run % Run (Caenorhabditis elegans [1]): 111% | Follow-up HTS Run Visual Score (Caenorhabditis elegans [1]): Dead | Follow-up HTS Run mOD (Caenorhabditis elegans [1]): 179 mOD | Initial HTS Run % Run (Caenorhabditis elegans [2]): 101% | Initial HTS Run mOD (Caenorhabditis elegans [2]): 124 mOD | 5 Day Visual Score V3 (Caenorhabditis elegans [3]; scored day 5): Dead(L4)/#A | 5 Day Visual Score V2 (Caenorhabditis elegans [3]; scored day 5): L2 | 5 Day Visual Score V1 (Caenorhabditis elegans [3]; scored day 5): Dead | 5 Day Visual Score V3 (Caenorhabditis elegans [3]; [5]): Dead | 5 Day Visual Score V2 (Caenorhabditis elegans [3]; [5]): L2 | 5 Day Visual Score V1 (Caenorhabditis elegans [3]; [5]): Dead

CCCCCCCCS(=O)(=O)N1CCN(C(=O)C=Cc2cccc(C(F)(F)F)c2)CC1C(=O)NCc1ccccc1C(F)(F)F (stereo not drawn) [AKC 173]
Follow-up HTS Run % Run (Caenorhabditis elegans [1]): 107% | Follow-up HTS Run mOD (Caenorhabditis elegans [1]): 172 mOD | Initial HTS Run % Run (Caenorhabditis elegans [2]): 98% | Initial HTS Run mOD (Caenorhabditis elegans [2]): 120 mOD | 5 Day Visual Score V6 (Caenorhabditis elegans [3]; [5]): OK (no effect (˜1000+ progeny)) | 5 Day Visual Score V5 (Caenorhabditis elegans [3]; [5]): OK (no effect (˜1000+ progeny)) | 5 Day Visual Score V4 (Caenorhabditis elegans [3]; [5]): OK (no effect (˜1000+ progeny)) | 5 Day Visual Score V3 (Caenorhabditis elegans [3]; [5]): OK (no effect (˜1000+ progeny))

CC(C)(C)c1csc(NC(=O)CC2CCCc3ccccc32)n1 (stereo not drawn) [AKC 175]
Follow-up HTS Run % Run (Caenorhabditis elegans [1]): 99% | Follow-up HTS Run Visual Score (Caenorhabditis elegans [1]): L4/AD/B! | Follow-up HTS Run mOD (Caenorhabditis elegans [1]): 159 mOD | Initial HTS Run % Run (Caenorhabditis elegans [2]): 85% | Initial HTS Run Visual Score (Caenorhabditis elegans [2]): L4/AD/B | Initial HTS Run mOD (Caenorhabditis elegans [2]): 104 mOD | 5 Day Visual Score V6 (Caenorhabditis elegans [3]; [5]): OK (no effect (˜1000+ progeny)) | 5 Day Visual Score V5 (Caenorhabditis elegans [3]; [5]): OK (no effect (˜1000+ progeny)) | 5 Day Visual Score V4 (Caenorhabditis elegans [3]; [5]): OK (no effect (˜1000+ progeny)) | 5 Day Visual Score V3 (Caenorhabditis elegans [3]; [5]): OK (no effect (˜1000+ progeny)) | 5 Day Visual Score V2 (Caenorhabditis elegans [3]; [5]): OK (no effect (˜1000+ progeny)) | 5 Day Visual Score V1 (Caenorhabditis elegans [3]; [5]): < (reduced broodsize (250-500 progeny))

CC[C@H](C)[C@H]1O[C@]2(CC(O)[C@@H]1C)C[C@@H]1C[C@@H](C/C=C(\C)[C@@H](OC3CC(OC)C(OC4CC(OC)C(O)C(C)O4)C(C)O3)[C@@H](C)/C=C/C=C3\CO[C@@H]4[C@H](O)C(C)=C[C@@H](C(=O)O1)[C@]34O)O2 (stereo partly drawn) [Avermectin B2a]
activity against the root-knot nematode [4]: active
